Test results as given in patent US9273040B2 (Merck Sharp & Dohme Corp., priority 2011, dated 2016).
Like-named read-outs stand apart in the source and are kept apart here.

Experiments:
[1] = target: T1, human Nav1.7 channels stably expressed in HEK 293 cells (Homo sapiens, UniProt Q15858); assay: PatchXpress 7000 automated patch-clamp, sodium current; assay type: cell-based; conditions: 22° C.
T1 construct: expressed in transfected cells
Source text: (§1) To measure state and use-dependent sodium channel inhibition, test compounds were further characterized in an automated PatchXpress® assay (Molecular Devices). Two voltage-clamp protocols were used. 1) Use-dependent protocol: Cells were held at a membrane potential 20 mV negative to the potential at which ˜50% of the channels are inactivated (V0.5 inact). A train of 30 ms depolarizations to −20 mV was applied to the cells expressing Nav1.7 at a frequency of 10 Hz. […] Data was collected in the absence and presence of drug, and after drug washout. 2) A double-pulse protocol was used to measure inactivated state block. Cells were held at a potential 20 mV negative to V0.5 inact. A 8000 ms pre-pulse 7 mV positive to V0.5 inact was given followed by a hyperpolarizing 2 ms pulse to −120 mV and a 20 ms test pulse to −20 mV. Protocol was applied to cells in the absence, presence of compound and after washout. The temperature of PatchXpress instruments was maintained at 22° C. The following recording solutions were used. Internal solution (mM): 30 CsCl, 5 HEPES, 10 EGTA, 120 CsF, 5 NaF, 2MgCl2, pH=7.3 with CsOH, 324 mosmo. External solution (mM): 120 NMDG, 40 NaCl, 1 KCl, 0.5 MgCl2, 5 HEPES, 2.7 CaCl2, pH=7.5 with NMDG-OH.
(§2) For all electrophysiology experiments, offline analysis was used to correct for current rundown and to determine percent inhibition as a function of drug concentration. IC50 values were determined by fitting to the Hill equation.

[2] = target: T2, human Nav1.5 channels stably expressed in HEK 293 cells (Homo sapiens, UniProt Q14524); assay: as above; assay type: cell-based; conditions: selectivity over Nav1.5
T2 construct: expressed in transfected cells
T2 sequence (Q14524 whole entry): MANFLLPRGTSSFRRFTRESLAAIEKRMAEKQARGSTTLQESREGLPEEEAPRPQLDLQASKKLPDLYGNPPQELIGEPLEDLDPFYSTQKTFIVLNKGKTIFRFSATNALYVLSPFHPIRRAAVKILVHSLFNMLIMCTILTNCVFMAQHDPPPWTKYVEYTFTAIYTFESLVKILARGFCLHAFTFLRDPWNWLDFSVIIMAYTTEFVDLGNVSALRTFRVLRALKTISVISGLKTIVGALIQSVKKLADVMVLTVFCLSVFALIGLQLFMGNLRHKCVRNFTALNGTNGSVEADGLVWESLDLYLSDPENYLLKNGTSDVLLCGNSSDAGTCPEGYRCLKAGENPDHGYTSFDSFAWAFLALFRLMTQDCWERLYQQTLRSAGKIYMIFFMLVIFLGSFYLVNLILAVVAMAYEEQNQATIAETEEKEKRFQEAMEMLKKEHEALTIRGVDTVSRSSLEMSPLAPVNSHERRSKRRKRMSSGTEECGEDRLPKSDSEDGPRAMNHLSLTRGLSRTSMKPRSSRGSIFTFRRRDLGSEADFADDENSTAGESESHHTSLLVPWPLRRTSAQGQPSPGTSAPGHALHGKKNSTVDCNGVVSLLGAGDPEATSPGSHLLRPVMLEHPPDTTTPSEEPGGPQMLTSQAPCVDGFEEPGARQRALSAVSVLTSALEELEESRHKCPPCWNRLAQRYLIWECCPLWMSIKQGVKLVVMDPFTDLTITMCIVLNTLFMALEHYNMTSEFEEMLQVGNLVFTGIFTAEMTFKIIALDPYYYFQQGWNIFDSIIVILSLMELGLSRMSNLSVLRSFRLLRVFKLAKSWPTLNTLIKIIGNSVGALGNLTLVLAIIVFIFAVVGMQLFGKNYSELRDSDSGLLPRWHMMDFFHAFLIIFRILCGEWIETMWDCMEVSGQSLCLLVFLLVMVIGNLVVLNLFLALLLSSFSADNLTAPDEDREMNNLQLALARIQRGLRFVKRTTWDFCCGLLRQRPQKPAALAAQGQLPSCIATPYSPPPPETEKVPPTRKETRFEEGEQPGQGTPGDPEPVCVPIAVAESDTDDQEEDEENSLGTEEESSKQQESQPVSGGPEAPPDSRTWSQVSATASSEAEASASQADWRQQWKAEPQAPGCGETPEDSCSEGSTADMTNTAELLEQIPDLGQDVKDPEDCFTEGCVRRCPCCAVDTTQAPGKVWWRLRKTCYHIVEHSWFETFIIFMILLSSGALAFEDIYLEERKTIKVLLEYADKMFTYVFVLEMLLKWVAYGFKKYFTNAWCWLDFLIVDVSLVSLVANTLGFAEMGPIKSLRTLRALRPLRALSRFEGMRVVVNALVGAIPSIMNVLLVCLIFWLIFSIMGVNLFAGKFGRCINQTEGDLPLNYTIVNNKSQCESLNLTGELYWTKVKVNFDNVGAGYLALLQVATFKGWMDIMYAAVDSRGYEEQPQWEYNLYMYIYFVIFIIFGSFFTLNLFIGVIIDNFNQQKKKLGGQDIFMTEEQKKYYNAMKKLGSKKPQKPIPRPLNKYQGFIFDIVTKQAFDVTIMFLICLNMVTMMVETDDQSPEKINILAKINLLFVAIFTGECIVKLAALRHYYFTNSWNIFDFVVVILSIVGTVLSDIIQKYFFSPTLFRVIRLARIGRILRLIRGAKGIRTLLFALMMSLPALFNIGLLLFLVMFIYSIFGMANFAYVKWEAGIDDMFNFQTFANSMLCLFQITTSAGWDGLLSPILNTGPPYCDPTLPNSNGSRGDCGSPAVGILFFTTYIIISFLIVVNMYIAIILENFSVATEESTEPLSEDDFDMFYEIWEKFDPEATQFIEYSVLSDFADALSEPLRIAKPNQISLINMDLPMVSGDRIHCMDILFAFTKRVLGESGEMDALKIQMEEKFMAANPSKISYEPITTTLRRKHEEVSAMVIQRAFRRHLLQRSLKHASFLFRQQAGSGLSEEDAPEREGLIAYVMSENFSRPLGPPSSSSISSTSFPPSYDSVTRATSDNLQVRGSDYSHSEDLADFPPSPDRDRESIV
Source text: as §1, §2

[3] = read-out: potency for the Nav 1.7 sodium ion channel (as measured by PatchXpress)

T1 sequence (Q15858 whole entry): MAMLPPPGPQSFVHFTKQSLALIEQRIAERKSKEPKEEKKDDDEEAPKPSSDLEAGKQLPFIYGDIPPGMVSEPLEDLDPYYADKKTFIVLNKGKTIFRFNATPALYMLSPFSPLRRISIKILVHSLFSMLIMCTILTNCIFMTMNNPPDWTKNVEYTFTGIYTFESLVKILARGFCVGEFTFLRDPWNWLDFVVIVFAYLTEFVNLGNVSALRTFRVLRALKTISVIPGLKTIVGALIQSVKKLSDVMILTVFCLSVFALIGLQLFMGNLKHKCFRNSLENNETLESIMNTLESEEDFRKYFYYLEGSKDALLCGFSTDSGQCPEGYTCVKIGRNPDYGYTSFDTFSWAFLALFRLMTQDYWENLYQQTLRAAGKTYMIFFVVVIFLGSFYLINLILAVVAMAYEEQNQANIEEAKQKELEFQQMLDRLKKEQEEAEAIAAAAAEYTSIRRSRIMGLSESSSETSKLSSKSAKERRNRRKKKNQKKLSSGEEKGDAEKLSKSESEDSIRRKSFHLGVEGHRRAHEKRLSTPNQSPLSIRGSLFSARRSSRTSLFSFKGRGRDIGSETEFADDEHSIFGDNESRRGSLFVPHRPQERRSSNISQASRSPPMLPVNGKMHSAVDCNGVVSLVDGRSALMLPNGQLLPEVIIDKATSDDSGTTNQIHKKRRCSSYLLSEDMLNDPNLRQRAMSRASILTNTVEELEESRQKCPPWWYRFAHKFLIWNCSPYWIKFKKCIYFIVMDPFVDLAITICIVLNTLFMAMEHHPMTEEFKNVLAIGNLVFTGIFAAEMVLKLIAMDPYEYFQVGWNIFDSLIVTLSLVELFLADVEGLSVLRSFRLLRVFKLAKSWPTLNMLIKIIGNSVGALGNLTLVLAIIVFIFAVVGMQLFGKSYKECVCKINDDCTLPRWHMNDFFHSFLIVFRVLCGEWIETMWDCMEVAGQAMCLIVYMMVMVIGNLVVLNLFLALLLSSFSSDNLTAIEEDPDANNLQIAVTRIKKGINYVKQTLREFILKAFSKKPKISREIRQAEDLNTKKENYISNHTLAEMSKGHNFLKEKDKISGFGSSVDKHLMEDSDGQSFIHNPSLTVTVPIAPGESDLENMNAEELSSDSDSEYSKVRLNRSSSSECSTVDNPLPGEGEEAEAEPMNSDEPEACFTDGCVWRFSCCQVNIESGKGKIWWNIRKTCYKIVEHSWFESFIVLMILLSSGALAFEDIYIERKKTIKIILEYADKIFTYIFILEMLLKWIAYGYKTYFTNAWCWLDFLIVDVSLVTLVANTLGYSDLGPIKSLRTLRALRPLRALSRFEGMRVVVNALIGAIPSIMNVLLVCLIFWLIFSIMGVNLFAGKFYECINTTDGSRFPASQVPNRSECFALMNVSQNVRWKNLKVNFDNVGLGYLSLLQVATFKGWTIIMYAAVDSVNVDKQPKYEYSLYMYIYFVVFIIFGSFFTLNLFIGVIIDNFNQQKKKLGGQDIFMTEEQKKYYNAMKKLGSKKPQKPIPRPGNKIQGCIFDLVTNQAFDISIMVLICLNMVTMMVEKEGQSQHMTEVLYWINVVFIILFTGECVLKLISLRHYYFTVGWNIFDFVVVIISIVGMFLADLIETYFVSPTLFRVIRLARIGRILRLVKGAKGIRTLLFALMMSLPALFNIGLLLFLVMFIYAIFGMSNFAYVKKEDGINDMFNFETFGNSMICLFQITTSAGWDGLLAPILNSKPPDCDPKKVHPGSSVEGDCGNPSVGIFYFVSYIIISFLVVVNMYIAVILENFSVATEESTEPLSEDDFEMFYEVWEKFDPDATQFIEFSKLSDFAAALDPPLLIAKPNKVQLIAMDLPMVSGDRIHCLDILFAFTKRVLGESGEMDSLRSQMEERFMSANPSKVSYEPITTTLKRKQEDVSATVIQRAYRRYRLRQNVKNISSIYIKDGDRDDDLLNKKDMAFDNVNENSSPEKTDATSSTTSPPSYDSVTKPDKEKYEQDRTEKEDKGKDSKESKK

SMILES | IC50 [1, 3] [nM] | ratio of Nav 1.5:Nav 1.7 potency, determined by PatchXpress measurement [2] | IC50 ([1]; potency for the Nav 1.7 sodium ion channel (as measured by PatchXpress)) [nM]
C[C@@H](c1cccc2ccncc12)n1c(=O)oc2cc(S(=O)(=O)Nc3ncns3)ccc21 [Compound 14-9, 3-[(1S)-1-isoquinolin-8-ylethyl]-2-oxo-N-1,2,4-thiadiazol-5-yl-2,3-dihydro-1,3-benzoxazole-6-sulfonamide] | 808 | 37 | 
C[C@@H](c1cccc2ccncc12)n1c(=O)oc2cc(S(=O)(=O)Nc3ncns3)c(F)cc21 [Compound 14-10, 5-fluoro-3-[(1S)-1-isoquinolin-8-ylethyl]-2-oxo-N-1,2,4-thiadiazol-5-yl-2,3-dihydro-1,3-benzoxazole-6-sulfonamide] | 779 | 27 | 
C[C@H](c1cccc2cncn12)n1c(=O)oc2cc(S(=O)(=O)Nc3ncns3)c(F)cc21 [Compound 15-3, (R)-5-Fluoro-3-(1-(imidazo[1,5-a]pyridin-5-yl)ethyl)-2-oxo-N-(1,2,4-thiadiazol-5-yl)-2,3-dihydrobenzo[d]oxazole-6-sulfonamide] | 134 | 122 | 
C[C@@H](c1cccc2cncn12)n1c(=O)oc2cc(S(=O)(=O)Nc3ncns3)c(F)cc21 [Compound 15-4, 5-fluoro-3-[(1S)-1-imidazo[1,5-a]pyridin-5-ylethyl]-2-oxo-N-1,2,4-thiadiazol-5-yl-2,3-dihydro-1,3-benzoxazole-6-sulfonamide] | 235 | 60 | 
C[C@H](c1ccccc1I)n1c(=O)oc2cc(S(=O)(=O)Nc3ncns3)c(F)cc21 [Compound 16-3, (R)-5-Fluoro-3-(1-(2-iodophenyl)ethyl)-2-oxo-N-(1,2,4-thiadiazol-5-yl)-2,3-dihydrobenzo[d]oxazole-6-sulfonamide] | 69 | 272 | 
C[C@H](c1ccccc1C1=CCNCC1)n1c(=O)oc2cc(S(=O)(=O)Nc3ncns3)c(F)cc21 [Compound 16-4, (R)-5-Fluoro-2-oxo-3-(1-(2-(1,2,3,6-tetrahydropyridin-4-yl)phenyl)ethyl)-N-(1,2,4-thiadiazol-5-yl)-2,3-dihydrobenzo[d]oxazole-6-sulfonamide] |  | 296 | 28
C[C@H](c1ccccc1C1=CCCNC1)n1c(=O)oc2cc(S(=O)(=O)Nc3ncns3)c(F)cc21 [Compound 16-5, 5-fluoro-2-oxo-3-{(1R)-1-[2-(1,2,5,6-tetrahydropyridin-3-yl)phenyl]ethyl}-N-1,2,4-thiadiazol-5-yl-2,3-dihydro-1,3-benzoxazole-6-sulfonamide] | 46 | 646 | 
C[C@H](c1ccccc1C1=CCNCCC1)n1c(=O)oc2cc(S(=O)(=O)Nc3ncns3)c(F)cc21 [Compound 16-6, 5-fluoro-2-oxo-3-{(1R)-1-[2-(2,5,6,7-tetrahydro-1H-azepin-4-yl)phenyl]ethyl}-N-1,2,4-thiadiazol-5-yl-2,3-dihydro-1,3-benzoxazole-6-sulfonamide] | 18 | 1692 | 
C[C@H](c1ccccc1C#CC1(N)CC1)n1c(=O)oc2cc(S(=O)(=O)Nc3ncns3)c(F)cc21 [Compound 17-1, (R)-3-(1-(2-((1-aminocyclopropyl)ethynyl)phenyl)ethyl)-5-fluoro-2-oxo-N-(1,2,4-thiadiazol-5-yl)-2,3-dihydrobenzo[d]oxazole-6-sulfonamide] | 96 | 313 | 
C[C@H](c1ccccc1C#CCN1CCOCC1)n1c(=O)oc2cc(S(=O)(=O)Nc3ncns3)c(F)cc21 [Compound 17-2, 5-fluoro-3-{(1R)-1-[2-(3-morpholin-4-ylprop-1-yn-1-yl)phenyl]ethyl}-2-oxo-N-1,2,4-thiadiazol-5-yl-2,3-dihydro-1,3-benzoxazole-6-sulfonamide] | 332 | 90 | 
C[C@H](c1ccccc1C#CC1(O)CCCC1)n1c(=O)oc2cc(S(=O)(=O)Nc3ncns3)c(F)cc21 [Compound 17-3, 5-fluoro-3-[(1R)-1-{2-[(1-hydroxycyclopentyl)ethynyl]phenyl}ethyl]-2-oxo-N-1,2,4-thiadiazol-5-yl-2,3-dihydro-1,3-benzoxazole-6-sulfonamide] | 172 | 97 | 
C[C@H](c1ccccc1C#CCCO)n1c(=O)oc2cc(S(=O)(=O)Nc3ncns3)c(F)cc21 [Compound 17-4, 5-fluoro-3-{(1R)-1-[2-(4-hydroxybut-1-yn-1-yl)phenyl]ethyl}-2-oxo-N-1,2,4-thiadiazol-5-yl-2,3-dihydro-1,3-benzoxazole-6-sulfonamide] | 147 | 360 | 
C[C@H](c1ccccc1C#CCN1CCS(=O)(=O)CC1)n1c(=O)oc2cc(S(=O)(=O)Nc3ncns3)c(F)cc21 [Compound 17-5, 3-[(1R)-1-{2-[3-(1,1-dioxidothiomorpholin-4-yl)prop-1-yn-1-yl]phenyl}ethyl)-5-fluoro-2-oxo-N-1,2,4-thiadiazol-5-yl-2,3-dihydro-1,3-benzoxazole-6-sulfonamide] | 122 | 246 | 
CCC(O)(C#Cc1ccccc1[C@@H](C)n1c(=O)oc2cc(S(=O)(=O)Nc3ncns3)c(F)cc21)CC [Compound 17-6, 3-{(1R)-1-[2-(3-ethyl-3-hydroxypent-1-yn-1-yl)phenyl]ethyl}-5-fluoro-2-oxo-N-1,2,4-thiadiazol-5-yl-2,3-dihydro-1,3-benzoxazole-6-sulfonamide] | 104 | 91 | 
C[C@H](c1ccccc1C#C[C@@H](C)O)n1c(=O)oc2cc(S(=O)(=O)Nc3ncns3)c(F)cc21 [Compound 17-7, 5-fluoro-3-[(1R)-1-{2-[(3R)-3-hydroxybut-1-yn-1-yl]phenyl}ethyl]-2-oxo-N-1,2,4-thiadiazol-5-yl-2,3-dihydro-1,3-benzoxazole-6-sulfonamide] | 78 | 1257 | 
C[C@H](c1ccccc1C#Cc1cncn1C)n1c(=O)oc2cc(S(=O)(=O)Nc3ncns3)c(F)cc21 [Compound 17-8, 5-fluoro-3-[(1R)-1-{2-[(1-methyl-1H-imidazol-5-yl)ethynyl]phenyl}ethyl]-2-oxo-N-1,2,4-thiadiazol-5-yl-2,3-dihydro-1,3-benzoxazole-6-sulfonamide] | 64 | 27 | 
C[C@H](c1ccccc1C#CCO)n1c(=O)oc2cc(S(=O)(=O)Nc3ncns3)c(F)cc21 [Compound 17-9, 5-fluoro-3-{(1R)-1-[2-(3-hydroxyprop-1-yn-1-yl)phenyl]ethyl}-2-oxo-N-1,2,4-thiadiazol-5-yl-2,3-dihydro-1,3-benzoxazole-6-sulfonamide] | 58 | 45 | 
C[C@H](c1ccccc1C#CC(C)(C)N)n1c(=O)oc2cc(S(=O)(=O)Nc3ncns3)c(F)cc21 [Compound 17-10, 3-{(1R)-1-[2-(3-amino-3-methylbut-1-yn-1-yl)phenyl]ethyl}-5-fluoro-2-oxo-N-1,2,4-thiadiazol-5-yl-2,3-dihydro-1,3-benzoxazole-6-sulfonamide] | 56 | 534 | 
CNCC#Cc1ccccc1[C@@H](C)n1c(=O)oc2cc(S(=O)(=O)Nc3ncns3)c(F)cc21 [Compound 17-11, 5-fluoro-3-[(1R)-1-{2-[3-(methylamino)prop-1-yn-1-yl]phenyl}ethyl]-2-oxo-N-1,2,4-thiadiazol-5-yl-2,3-dihydro-1,3-benzoxazole-6-sulfonamide] | 51 | 589 | 
C[C@H](O)C#Cc1ccccc1[C@@H](C)n1c(=O)oc2cc(S(=O)(=O)Nc3ncns3)c(F)cc21 [Compound 17-12, 5-fluoro-3-[(1R)-1-{2-[(3S)-3-hydroxybut-1-yn-1-yl]phenyl}ethyl]-2-oxo-N-1,2,4-thiadiazol-5-yl-2,3-dihydro-1,3-benzoxazole-6-sulfonamide] | 37 | 262 | 
C[C@H](c1ccccc1C#CCC1CCCN1)n1c(=O)oc2cc(S(=O)(=O)Nc3ncns3)c(F)cc21 (stereo partly drawn) [Compound 17-13, 5-fluoro-2-oxo-3-{(1R)-1-[2-(3-pyrrolidin-2-ylprop-1-yn-1-yl)phenyl]ethyl}-N-1,2,4-thiadiazol-5-yl-2,3-dihydro-1,3-benzoxazole-6-sulfonamide] | 34 | 789 | 
C[C@H](c1ccccc1C#CC1CCNC1)n1c(=O)oc2cc(S(=O)(=O)Nc3ncns3)c(F)cc21 (stereo partly drawn) [Compound 17-14, 5-fluoro-2-oxo-3-{(1R)-1-[2-(pyrrolidin-3-ylethynyl)phenyl]ethyl}-N-1,2,4-thiadiazol-5-yl-2,3-dihydro-1,3-benzoxazole-6-sulfonamide] | 34 | 1055 | 
